# From PMC7525318, “Identification of Six Flavonoids as Novel Cellular Antioxidants and Their Structure-Activity Relationship” (Oxidative Medicine and Cellular Longevity, 2020)
# Experiments:
# [1] = Oxygen radical antioxidant capacity (ORAC) assay; details: Trolox equivalents; AAPH, fluorescein
# Description: The ORAC assay was evaluated as previously described by Cao et al. with some modifications. 50 μL of samples or Trolox with different concentrations and the fluorescein solution was added to a 96-well microplate, which was incubated at 37°C for 10 min. […] The ORAC values were calculated by the regression equation between the Trolox concentration and the net area under the curve (expressed as μmol Trolox eq/μmol sample).
# HepG2 cells [2] = test: Cytotoxicity assay (CCK-8); format: cell-based
# Description: The cytotoxicity and antiproliferative activity assays were performed by using the CCK-8 assay kit. Briefly, HepG2 cells were cultured at a density of 4 × 10^4 cells/well or 2.5 × 10^4 cells/well in a 96-well microplate with growth medium. After incubation at 37°C, the growth medium is treated with 100 μL of growth medium containing different concentrations of tested compounds for 24 h or 72 h. The wells having growth medium without the tested compound served as control. Then, the cells were incubated with 10 μL/well CCK-8 solutions for 2 h at 37°C. The absorbance values of each well were measured at 450 nm using a microplate reader (SpectraMax i3x, ForteBio Analytics Co., Ltd., USA). The cytotoxic activity and antiproliferative effects of the tested compound was calculated as(1) Cytotoxicity %=1−As/Ac×100%, (2) Cell proliferation %=As/Ac×100%, where As is the absorbance of the well with compound; Ac is the absorbance of control.
# HepG2 cells [3] = test: Cellular antioxidant activity (CAA) assay; format: cell-based; details: DCFH-DA 25 μM, ABAP 600 μM
# Description: The CAA assay was tested as described previously. 6 × 10^4 cells/well of HepG2 cells were seeded at a 96-well microplate with 100 μL of growth medium/well. […] Then, the cells were washed with PBS and treated with 100 μL of 600 μM ABAP (dissolved in HBSS), and the 96-well microplate was immediately placed into an Infinite SpectraMax i3x Multi-Mode Detection plate-reader at 37°C. […]
# [4] = DPPH radical scavenging activity; details: 0.1 mM DPPH in methanol, 37°C, 30 min
# Description: This assay was conducted as previously described by Wen et al. with some modifications. DPPH was freshly prepared in methanol at a concentration of 0.1 mM. The solution (20 μL) containing the tested compounds with different concentrations was added into the DPPH solution (180 μL) in the 96-well plates. […] The IC50 value was calculated on the scavenging activity against DPPH radical.
# [5] = tested on: superoxide dismutase (SOD); test: Intracellular SOD activity in ABAP-treated HepG2 cells; format: cell-based; details: then ABAP
# Description: (§1) HepG2 cells were seeded (1 × 10^6 cells/well) in six-well plates. After incubation for 24 h, the cells were pretreated with different concentration samples. Medium was washed by PBS and treated with 600 μM ABAP. The cells were collected and treated with cell lysis buffer (20 mM Tris at pH 7.5, 150 mM NaCl and 1% Triton X-100) at 4°C. The lysed cells were used to measure the intracellular activities of SOD, CAT, and GSH-Px by kits according to the manufacturer instructions (Wen 2015). Cells without sample and ABAP treatment were used as positive control (PC), while cells treated with ABAP but not sample were used as negative control (NC).
# catalase (CAT) = test: Intracellular CAT activity in ABAP-treated HepG2 cells; format: cell-based; details: for CAT activity of PC value: % of PC value; for increase of CAT activity: HepG2, pretreatment before ABAP
# Description: as §1
# [6] = tested on: glutathione peroxidase (GSH-Px); test: Intracellular GSH-Px activity in ABAP-treated HepG2 cells; format: cell-based; details: for GSH-Px activity of PC value: % of PC value; for increase of GSH-Px activity: HepG2, pretreatment before ABAP
# Description: as §1
# [7] = HepG2, pretreated at a higher concentration
# [8] = HepG2, pretreated with 5 μM, then ABAP
# [9] = HepG2, pretreated with 10 μM, then ABAP
# [10] = HepG2, pretreated with 15 μM, then ABAP
# [11] = HepG2, first of three concentrations (not given)
# [12] = HepG2, second of three concentrations (not given)
# [13] = HepG2, third of three concentrations (not given)
# [14] = HepG2, pretreated with 20 μM, then ABAP
# [15] = HepG2, pretreated with 30 μM, then ABAP
Compound,ORAC values [1],cytotoxicity (HepG2 cells [2]; range of 10-160 μM),IC50 [4],"SOD activity compared to NC cells [5, 7]",increase of CAT activity (catalase (CAT)),increase of GSH-Px activity [6],EC50 (HepG2 cells [3]; Homo sapiens),other results
Rhamnetin [compound 2],4.72 ± 0.02 μmol TE/μmol,no significant effects,34 ± 0.61 µM,significant increase,dose-dependent manner,dose-dependent manner,,"EC50 (HepG2 cells [3]): 10.8 ± 0.34 µM; SOD activity compared to NC cells ([5]; HepG2, pretreated with 5 μM): insignificant increase; CAT activity of PC value (catalase (CAT); [8]): 56.58 ± 3.25%; CAT activity of PC value (catalase (CAT); [9]): 74.98 ± 4.25%; CAT activity of PC value (catalase (CAT); [10]): 83.10 ± 4.54%; GSH-Px activity of PC value [6, 8]: 65.09 ± 3.21%; GSH-Px activity of PC value [6, 9]: 71.88 ± 4.23%; GSH-Px activity of PC value [6, 10]: 81.24 ± 5.65%"
"O=c1c(O)c(-c2ccc(O)cc2)oc2cc(OC3O[C@H](CO)[C@@H](O)[C@H](O)[C@H]3O)cc(O)c12 (some centres unmarked) [compound 13, Kaempferol-7-O-glucopyranoside]",,no significant effects,> 200 µM,significant increase,dose-dependent manner,dose-dependent manner,57.8 ± 3.12 µM,"cytotoxicity (HepG2 cells [2]; at higher concentration): slight cytotoxicity; SOD activity compared to NC cells ([5]; HepG2, pretreated with 20 μM): insignificant increase"
"O=c1c(O)c(-c2ccc(O)cc2)oc2c(O)c(O)cc(O)c12 [compound 8, Herbacetin]",5.05 ± 0.05 μmol TE/μmol,no significant effects,> 200 µM,significant increase,dose-dependent manner,dose-dependent manner,27.1 ± 2.47 µM,"SOD activity compared to NC cells ([5]; HepG2, pretreated with 15 μM): insignificant increase; CAT activity of PC value (catalase (CAT); [11]): 50.86 ± 2.23%; CAT activity of PC value (catalase (CAT); [12]): 67.01 ± 5.32%; CAT activity of PC value (catalase (CAT); [13]): 80.86 ± 5.21%; GSH-Px activity of PC value [6, 11]: 54.02 ± 3.02%; GSH-Px activity of PC value [6, 12]: 63.46 ± 2.51%; GSH-Px activity of PC value [6, 13]: 82.02 ± 5.35%"
"OC[C@H]1O[C@@H](Oc2cc3c(O)cc(O)cc3[o+]c2-c2ccc(O)c(O)c2)[C@H](O)[C@@H](O)[C@@H]1O.[Cl-] [compound 54, Cyanidin-3-O-glucoside chloride]",4.63 ± 0.14 μmol TE/μmol,,> 200 µM,,,,,EC50 (HepG2 cells [3]): 43.8 µM
"O=C1c2c(O)cc(O)cc2O[C@H](c2ccc(O)cc2O)[C@H]1O [compound 40, Dihydromorin]",5.29 ± 0.05 μmol TE/μmol,,> 200 µM,,,,> 200 µM,
"O=c1c(O)c(-c2ccc(O)cc2O)oc2cc(O)cc(O)c12 [compound 4, Morin]",5.98 ± 0.01 μmol TE/μmol,,> 200 µM,,,,15.2 ± 0.32 µM,
"O=c1c(O)c(-c2ccc(O)c(O)c2)oc2cc(O)cc(O)c12 [compound 7, Quercetin, reference compound]",5.52 ± 0.04 μmol TE/μmol,,21.5 ± 1.9 µM,,,,8.77 ± 0.09 µM,
"O=c1c(OC2OC(CO)C(O)C(O)C2O)c(-c2ccc(O)c(O)c2)oc2cc(O)cc(O)c12 (centres unmarked) [compound 26, Quercetin-3-O-galactoside]",4.05 ± 0.15 μmol TE/μmol,,53.3 µM,,,,45.9 µM,
"Oc1cc(O)c2c(c1)OC(c1ccc(O)c(O)c1)C(O)C2 (centres unmarked) [compound 59, Catechin]",4.93 ± 0.02 μmol TE/μmol,,130 ± 5.55 µM,,,,> 200 µM,
"O=c1c(O)c(-c2cc(O)c(O)c(O)c2)oc2cc(O)cc(O)c12 [compound 18, Myricetin]",6.64 ± 0.03 μmol TE/μmol,,21.3 ± 1.33 µM,,,,26.7 ± 1.04 µM,
"O=c1cc(-c2ccc(O)cc2)oc2c([C@@H]3O[C@H](CO)[C@@H](O)[C@H](O)[C@H]3O)c(O)cc(O)c12 [compound 30, Vitexin]",6.80 ± 0.42 μmol TE/μmol,,> 200 µM,,,,> 200 µM,
"O=c1c(O)c(-c2ccc(O)c(O)c2)oc2cc(O)ccc12 [compound 35, Fisetin]",5.36 ± 0.21 μmol TE/μmol,,25.2 ± 0.62 µM,,,,> 200 µM,
"O=c1cc(-c2ccc(O)c(O)c2)oc2cc(O)c([C@@H]3O[C@H](CO)[C@@H](O)[C@H](O)[C@H]3O)c(O)c12 [compound 32, Isoorientin]",,no significant effects,> 200 µM,significant increase,dose-dependent manner,dose-dependent manner,139 ± 5.21 µM,"SOD activity compared to NC cells ([5]; HepG2, pretreated with 40 μM): insignificant increase; CAT activity of PC value (catalase (CAT); [11]): 44.93 ± 2.23%; CAT activity of PC value (catalase (CAT); [12]): 52.68 ± 3.42%; CAT activity of PC value (catalase (CAT); [13]): 68.35 ± 3.72%; GSH-Px activity of PC value [6, 11]: 47.79 ± 3.28%; GSH-Px activity of PC value [6, 12]: 55.99 ± 3.57%; GSH-Px activity of PC value [6, 13]: 71.20 ± 4.28%"
"O=c1c(O[C@@H]2O[C@@H](CO)[C@H](O)[C@H]2O)c(-c2ccc(O)c(O)c2)oc2cc(O)cc(O)c12 [compound 10, Avicularin]",,no significant effects,71.7 µM,significant increase,dose-dependent manner,dose-dependent manner,45.1 ± 2.12 µM,"SOD activity compared to NC cells ([5]; HepG2, pretreated with 10 μM): insignificant increase; CAT activity of PC value (catalase (CAT); [9]): 51.90 ± 3.21%; CAT activity of PC value (catalase (CAT); [14]): 68.95 ± 4.22%; CAT activity of PC value (catalase (CAT); [15]): 81.82 ± 4.25%; GSH-Px activity of PC value [6, 9]: 54.37 ± 3.05%; GSH-Px activity of PC value [6, 14]: 68.21 ± 4.25%; GSH-Px activity of PC value [6, 15]: 81.82 ± 5.52%"
"O=C(O[C@@H]1Cc2c(O)cc(O)cc2O[C@@H]1c1cc(O)c(O)c(O)c1)c1cc(O)c(O)c(O)c1 [compound 60, Epigallocatechin gallate]",6.02 ± 0.14 μmol TE/μmol,,19.1 ± 0.62 µM,,,,25.91 ± 0.25 µM,
"Oc1cc(O)c2cc(O)c(-c3cc(O)c(O)c(O)c3)[o+]c2c1 [compound 52, Delphinidin chloride]",5.02 ± 0.02 μmol TE/μmol,,36.8 ± 4.26 µM,,,,24.91 ± 0.12 µM,
